Reference: PMC10850047, “Exploring the impact of PEGylation on pharmacokinetics: a size-dependent effect of polyethylene glycol on prostate-specific membrane antigen inhibitors” (EJNMMI Research, 2024)
Like-named read-outs stand apart in the source and are kept apart here.

Assays:
PSMA = biological target: T1, PSMA (Homo sapiens, UniProt Q04609); assay: Competitive cell binding assay against [68Ga]Ga-PSMA-11 on LNCaP cells; conditions: competition with [68Ga]Ga-PSMA-11, natGa-labeled standards, 1 h 37 °C
T1 construct: host or cells: LNCaP
T1 sequence (Q04609 whole entry): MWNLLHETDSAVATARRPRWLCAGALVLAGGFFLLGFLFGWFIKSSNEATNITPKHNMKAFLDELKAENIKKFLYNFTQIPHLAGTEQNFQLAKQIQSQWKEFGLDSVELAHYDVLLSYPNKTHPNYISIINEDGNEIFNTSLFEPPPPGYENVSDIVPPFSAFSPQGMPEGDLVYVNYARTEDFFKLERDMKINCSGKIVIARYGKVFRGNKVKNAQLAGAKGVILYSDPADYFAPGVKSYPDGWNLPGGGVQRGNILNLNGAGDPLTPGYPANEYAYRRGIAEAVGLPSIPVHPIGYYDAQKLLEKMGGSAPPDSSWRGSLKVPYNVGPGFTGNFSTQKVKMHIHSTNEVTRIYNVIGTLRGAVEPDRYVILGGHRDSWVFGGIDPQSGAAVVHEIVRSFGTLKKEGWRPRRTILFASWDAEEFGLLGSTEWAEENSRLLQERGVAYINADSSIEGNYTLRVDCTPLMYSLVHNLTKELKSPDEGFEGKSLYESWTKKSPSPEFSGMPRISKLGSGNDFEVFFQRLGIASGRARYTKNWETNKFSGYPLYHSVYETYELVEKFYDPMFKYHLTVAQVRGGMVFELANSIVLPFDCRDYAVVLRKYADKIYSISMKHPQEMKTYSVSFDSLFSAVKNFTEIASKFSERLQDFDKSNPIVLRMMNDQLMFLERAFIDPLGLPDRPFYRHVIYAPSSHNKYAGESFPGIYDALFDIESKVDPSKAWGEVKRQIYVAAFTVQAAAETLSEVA
Protocol: LNCaP prostate cancer cell line obtained from the American Type Culture Collection (ATCC, Manassas, VA) was used for cell affinity studies. The cells were grown in a meilunbio RPMI 1640 medium (ATCC modified) supplemented with 10% fetal bovine serum and 1% streptomycin/penicillin (Thermo Fisher Scientific, USA) at 37 °C in a humidified 5% CO2 atmosphere. Two days (48 ± 2 h) prior to in vitro experiments, the cells were harvested using trypsin-ethylenediaminetetraacetic acid (EDTA; 0.25% trypsin, 0.02% EDTA) in PBS and centrifuged. The supernatant was disposed, and the cell pellet was resuspended in a culture medium, and LNCaP cells (150,000 cells/well) were counted with a hemocytometer and seeded in poly-L-lysine-coated 24-well plates used in cell binding studies. The cells were then allowed to grow at 37 °C for 48 h. PC3-PIP cells provided by Professor Xiaoyuan Chen (Singapore) require additional Puromycin (2 µg/ml) in addition to the appealed culture conditions. Detailed information regarding uptake and internalization experiments can be found in the previous report.
In order to determine the binding affinity, a competitive cell binding assay was performed. […] The total radioactivity in each well was measured with a gamma counter. […]

PC3-PIP tumors = assay: Micro-PET/CT blocking experiment with 2-PMPA, PC3-PIP tumor model; format: in vivo, mice; conditions: identical methodology
Protocol: (§1) To perform imaging studies, the male mice bearing LNCaP tumors were injected with the corresponding radioligand (~ 2.5 MBq; 100 μL) via their tail veins. The micro-PET/CT scans (Inveon PET, Siemens) were conducted at 10, 30, 60, and 120 min after injection. The mice were anesthetized and maintained under 2% isoflurane in oxygen at a flow rate of 2 L/min during the 2-h imaging study. First, a 10 min static PET imaging acquisition was carried out, followed by a 10 min CT scan for localization and attenuation correction. Data analysis was performed using Inveon Research Workplace software. For PC3-PIP tumor model, the imaging studies were performed with micro-PET/SPECT/CT (Inliview-3000B, Novel Medical). Data analysis was performed using Nmsoft-Al ws v1.7–1 software.
(§2) To evaluate the specificity of radioligands, blocking experiments were performed. In brief, 40 nmol of the PSMA inhibitor 2-PMPA was administered, followed by the injection of approximately 2.6 MBq of radioligands after 30 min. Then a static scan of micro-PET/CT was performed 60 min later.

[1] = system: PC3-PIP tumor-bearing balb/c-nu mice; assay: Biodistribution in PC3-PIP tumor model; format: in vivo; conditions: mean ± SD (n=5)
Protocol: All animal experiments were performed with the approval of the institutional animal ethics committee. Male NOD/SCID mice (5 − 6 weeks old) implanted with LNCaP cells were used for imaging and biodistribution experiments as previously described. The mice were imaged or used in biodistribution studies once the tumor grew to 8 − 10 mm in diameter over a period of 4 − 5 weeks. At the same time, male balb/c-nu mice (5 − 6 weeks old) implanted with PC3-PIP cells were used as an alternative tumor model for imaging and biodistribution experiments.
To conduct biodistribution studies, male mice bearing LNCaP or PC3-PIP tumors with an average body weight of approximately 20 ± 5 g and a tumor diameter of 8 − 10 mm were administered a bolus injection of 2.5 MBq of the corresponding radioligand via the tail vein. After 30, 60, and 120 min, the mice were anesthetized with isoflurane and subsequently euthanized by CO2 asphyxiation. Blood was drawn, and the organs of interest were promptly harvested, blotted dry, and weighed. The radioactivity of the collected mouse organs was measured and expressed as the percentage of the injected dose per gram of tissue (%ID/g). Each group consisted of at least five mice.

[2] = Radiochemical stability in PBS at 37 °C; format: physicochemical; conditions: 2 h
Protocol: (§3) The radiochemical purity of samples incubated in PBS at each time point was determined using RP-HPLC. For the samples in human serum, a pretreatment step was applied. Briefly, the human serum samples underwent precipitation with acetonitrile, and the radiochemical purity of each supernatant aliquot was determined using RP-HPLC after centrifugation for 5 min at 10,000 rpm. The experiments were performed in triplicate.

[3] = system: LNCaP tumor-bearing NOD/SCID mice; assay: Biodistribution in LNCaP tumor model
[4] = system: LNCaP tumor-bearing NOD/SCID mice; conditions: mouse, in vivo
LNCaP tumors = assay: Micro-PET/CT blocking experiment with 2-PMPA, LNCaP tumor model; format: in vivo, mice; conditions: 40 nmol 2-PMPA 30 min before radioligand, static scan 60 min later
Protocol: as §1, §2

[5] = Radiochemical stability in human serum at 37 °C; format: in vitro ADME; conditions: 2 h
Protocol: as §3

LNCaP cells = assay: Uptake and internalization in LNCaP cells; format: cell-based, human; conditions: 120 min incubation, normalized to 10^6 cells
Protocol: LNCaP prostate cancer cell line obtained from the American Type Culture Collection (ATCC, Manassas, VA) was used for cell affinity studies. […] The supernatant was disposed, and the cell pellet was resuspended in a culture medium, and LNCaP cells (150,000 cells/well) were counted with a hemocytometer and seeded in poly-L-lysine-coated 24-well plates used in cell binding studies. The cells were then allowed to grow at 37 °C for 48 h. PC3-PIP cells provided by Professor Xiaoyuan Chen (Singapore) require additional Puromycin (2 µg/ml) in addition to the appealed culture conditions.

## O=C([O-])CN1CCN(CC(=O)[O-])CCN(CC(=O)NCCOCCOCCOCCOCCOCCOCCOCCOCCNC(=O)CN(CCCC[C@H](NC(=O)N[C@@H](CCC(=O)O)C(=O)O)C(=O)O)C(=O)C2c3ccccc3-c3ccccc32)CCN(CC(=O)[O-])CC1.[68Ga+3] [[^68Ga]Ga-PP8-WD]
PSMA
  IC50: 6.13 ± 0.79 nM
PC3-PIP tumors
  Outcome of blocking imaging with 2-PMPA: in concordance with those observed in the LNCaP tumor model
[1]; 30 min p.i.
  Blood uptake: 5.2±0.77 %ID/g
  Bone uptake: 1.21±0.57 %ID/g
  Brain uptake: 0.13±0.05 %ID/g
  Heart uptake: 1.21±0.19 %ID/g
  Kidney uptake: 11.38±3.15 %ID/g
  Liver uptake: 1.11±0.10 %ID/g
  Lung uptake: 2.64±0.23 %ID/g
  Muscle uptake: 0.45±0.06 %ID/g
  Salivary uptake: 1.23±0.17 %ID/g
  Small int (small intestine) uptake: 0.87±0.18 %ID/g
  Spleen uptake: 1.39±0.26 %ID/g
  Stomach uptake: 0.83±0.17 %ID/g
  Tumor uptake: 12.81±4.48 %ID/g
[1]; 60 min p.i.
  Blood uptake: 3.89±0.18 %ID/g
  Bone uptake: 1.26±0.07 %ID/g
  Brain uptake: 0.12±0.02 %ID/g
  Heart uptake: 1.09±0.12 %ID/g
  Kidney uptake: 4.52±1.51 %ID/g
  Liver uptake: 1.24±0.16 %ID/g
  Lung uptake: 2.25±0.13 %ID/g
  Muscle uptake: 0.52±0.07 %ID/g
  Salivary uptake: 1.49±0.37 %ID/g
  Small int (small intestine) uptake: 0.92±0.23 %ID/g
  Spleen uptake: 1.30±0.21 %ID/g
  Stomach uptake: 0.98±0.09 %ID/g
  Tumor uptake: 15.21 ± 3.33 %ID/g
[1]; 120 min p.i.
  Blood uptake: 3.12±0.48 %ID/g
  Bone uptake: 1.62±0.13 %ID/g
  Brain uptake: 0.13±0.03 %ID/g
  Heart uptake: 0.94±0.16 %ID/g
  Kidney uptake: 2.74±0.38 %ID/g
  Liver uptake: 1.38±0.19 %ID/g
  Lung uptake: 2.16±0.14 %ID/g
  Muscle uptake: 0.43±0.11 %ID/g
  Salivary uptake: 1.26±0.27 %ID/g
  Small int (small intestine) uptake: 0.89±0.27 %ID/g
  Spleen uptake: 0.96±0.14 %ID/g
  Stomach uptake: 0.79±0.08. %ID/g
  Tumor uptake: 14.3±5.37 %ID/g
[2]
  Radiochemical purity after incubation in PBS: 97%
[3]; 30 min
  Tumor/Blood ratio: 4.67±0.32
  Tumor/Heart ratio: 12.31±0.58
  Tumor/Kidney ratio: 0.63±0.11
  Tumor/Liver ratio: 10.58±0.32
  Tumor/Salivary ratio: 5.23±0.24
[3]; 60 min
  Tumor/Blood ratio: 5.31±0.54
  Tumor/Heart ratio: 31.66±2.2
  Tumor/Kidney ratio: 1.22±0.35
  Tumor/Liver ratio: 23.74±1.90
  Tumor/Salivary ratio: 11.50±1.19
[3]; 120 min
  Tumor/Blood ratio: 30.88±1.36
  Tumor/Heart ratio: 75.85±3.6
  Tumor/Kidney ratio: 2.68±0.22
  Tumor/Liver ratio: 41.69±2.9
  Tumor/Salivary ratio: 45.05±2.56
[4]
  Renal uptake reduced by a factor compared to [68Ga]Ga-Flu-1: 20
  Renal uptake, fold less compared to [68Ga]Ga-Flu-1: fivefold
[4]; 0.5 h
  Tumor uptake: 16.18 ± 2.53 %ID/g
[4]; 1 h
  Tumor uptake: 18.64 ± 2.20 %ID/g
[4]; 2 h
  Tumor uptake: 17.12 ± 2.57 %ID/g
LNCaP tumors
  Radioactivity upon blocking with 2-PMPA: substantially reduced radioactivity
[5]
  Radiochemical purity after incubation in human serum: 96.69 ± 0.21%
LNCaP cells
  Internalization in LNCaP cells: 5.72 ± 0.95%
  Uptake in LNCaP cells: 10.16 ± 1.87%

## O=C(O)CC[C@H](NC(=O)N[C@@H](CCCCN(CC(=O)NCCOCCOCCOCCOCCNC(=O)CN1CCN(CC(=O)O)CCN(CC(=O)O)CCN(CC(=O)O)CC1)C(=O)C1c2ccccc2-c2ccccc21)C(=O)O)C(=O)O.[68Ga] [[^68Ga]Ga-PP4-WD]
PSMA
  IC50: 8.06 ± 0.91 nM
PC3-PIP tumors
  Outcome of blocking imaging with 2-PMPA: in concordance with those observed in the LNCaP tumor model
[1]; 30 min p.i.
  Blood uptake: 1.07±0.47 %ID/g
  Bone uptake: 0.41±0.17 %ID/g
  Brain uptake: 0.05±0.04 %ID/g
  Heart uptake: 0.39±0.26 %ID/g
  Kidney uptake: 17.85±4.66 %ID/g
  Liver uptake: 0.36±0.14 %ID/g
  Lung uptake: 0.99±0.22 %ID/g
  Muscle uptake: 0.36±0.25 %ID/g
  Salivary uptake: 0.46±0.16 %ID/g
  Small int (small intestine) uptake: 0.33±0.15 %ID/g
  Spleen uptake: 1.06±0.89 %ID/g
  Stomach uptake: 0.44±0.18 %ID/g
  Tumor uptake: 26.49±3.34 %ID/g
[1]; 60 min p.i.
  Blood uptake: 0.19±0.05 %ID/g
  Bone uptake: 0.11±0.02 %ID/g
  Brain uptake: 0.02±0.01 %ID/g
  Heart uptake: 0.06±0.01 %ID/g
  Kidney uptake: 2.96±1.04 %ID/g
  Liver uptake: 0.16±0.03 %ID/g
  Lung uptake: 0.23±0.05 %ID/g
  Muscle uptake: 0.04±0.02 %ID/g
  Salivary uptake: 0.17±0.09 %ID/g
  Small int (small intestine) uptake: 0.1±0.04 %ID/g
  Spleen uptake: 0.22±0.05 %ID/g
  Stomach uptake: 0.09±0.02 %ID/g
  Tumor uptake: 27.43 ± 1.81 %ID/g
[1]; 120 min p.i.
  Blood uptake: 0.17±0.04 %ID/g
  Bone uptake: 0.08±0.03 %ID/g
  Brain uptake: 0.01±0.01 %ID/g
  Heart uptake: 0.06±0.03 %ID/g
  Kidney uptake: 1.21±0.30 %ID/g
  Liver uptake: 0.14±0.05 %ID/g
  Lung uptake: 0.13±0.07 %ID/g
  Muscle uptake: 0.04±0.03 %ID/g
  Salivary uptake: 0.08±0.03 %ID/g
  Small int (small intestine) uptake: 0.07±0.03 %ID/g
  Spleen uptake: 0.13±0.10 %ID/g
  Stomach uptake: 0.06±0.03 %ID/g
  Tumor uptake: 19.42±4.00 %ID/g
[2]
  Radiochemical purity after incubation in PBS: 97%
[4]
  Renal uptake reduced by a factor compared to [68Ga]Ga-Flu-1: 40
  Renal uptake, fold less compared to [68Ga]Ga-Flu-1: tenfold
[4]; 0.5 h
  Bone uptake: 0.36±0.09 %ID/g
  Tumor uptake: 33.45 ± 3.40 %ID/g
[4]; 1 h
  Bone uptake: 0.39±0.22 %ID/g
  Tumor uptake: 39.28 ± 3.25 %ID/g
[4]; 2 h
  Bone uptake: 0.26±0.06 %ID/g
  Tumor uptake: 25.75 ± 2.43 %ID/g
LNCaP tumors
  Radioactivity upon blocking with 2-PMPA: substantially reduced radioactivity
[5]
  Radiochemical purity after incubation in human serum: 96.83 ± 0.87%
LNCaP cells
  Internalization in LNCaP cells: 9.36 ± 1.70%
  Uptake in LNCaP cells: 26.30 ± 2.06%
